# Laboratory results as given in PMC10254657, “Efficient pH-Responsive Nano-Drug Delivery System Based on Dynamic Boronic Acid/Ester Transformation” (Molecules, 2023).
# What was measured:
# [1] = Body weight of tumor-bearing mice during treatment; assay type: in vivo, BALB/c nude mice; conditions: 7.5 mg/kg i.v. on days 0, 3 and 6
# Protocol: (§1) BALB/c nude mice (4–5 weeks old) were used for the evaluation of the antitumor activities of the nanotherapies. The human prostate cancer cell line DU145 was grown to 80% confluence in 90 mm tissue culture dishes. After cell harvesting, the cells were resuspended in PBS at 4 °C to reach a final concentration of 1.5 × 10^7 cells/mL. The right flanks of the BALB/c nude mice were subcutaneously injected with 200 μL of a cell suspension containing 3 × 10^6 cells. At 4 days after implantation, the tumors reached approximately 150 mm^3 in volume, and then the mice were randomly divided into four groups (n = 6 mice per group). Mice bearing DU145 tumor xenografts were injected intravenously with PBS, Taxol, PTX/PBA NPs, and PTX/mPEG-PAL NPs at 7.5 mg/kg three times on days 0, 3, and 6. Tumor volumes and body weights were monitored and recorded once every three days. The lengths (L) and widths (W) of the tumors were measured with calipers, and the tumor volume was calculated by the following formula: V = (L × W^2)/2, where W is shorter than L.
# [2] = In vivo pharmacokinetics after intravenous administration; conditions: ICR mice
# Protocol: Pharmacokinetics was evaluated in ICR mice (about 20 g). […] A total of 0.1 mL of fresh blood was collected through orbital at appropriate intervals, put into a centrifuge tube pretreated with heparin sodium, and centrifugated (5000 rpm, 10 min). A total of 100 µL acetonitrile was added to 50 µL of supernatant collected to extract PTX and precipitate protein in serum, and the mixture was centrifugated for another 10 min (1200 rpm). The amounts of PTX in the collected supernatant were determined by HPLC (acetonitrile:water = 50:50 (v:v); flow rate: 1.0 mL/min; wavelength: 227 nm).
# DU145 tumor xenografts = assay: TUNEL assay of the tumors; assay type: in vivo, BALB/c nude mice; conditions: compared with PBS; tumors excised at 15 d
# From the text: The tumor tissue and other organs from the sacrificed mice were excised at 15 d of the treatments with various drugs. After being fixed in n 4% formaldehyde, dehydrated with ethanol, and embedded in paraffin, the tumor tissue and organs were further sectioned into 5 μm slices for hematoxylin and eosin (H&E) staining and the terminal deoxynucleotidyl transferase-mediated dUTP nick-end labeling (TUNEL) staining assay. The H&E-stained tissues and TUNEL-stained tissues were imaged by fluorescence microscopy (NIKON ECLIPSE C1, Tokyo, Japan).
# DU145 cells = assay: In vitro cytotoxicity by MTT assay; assay type: cell-based; conditions: Homo sapiens, DU-145, 24 h (Figure 5 legend) / 48 h (method), read-out: half-maximal inhibitory concentrations (IC50)
# Protocol: Human prostate cancer cells (DU145) were cultivated in DMEM supplemented with fetal bovine serum (FBS, 10%), streptomycin (100 μg/mL), and penicillin (100 units/mL). The cells were incubated in a humid atmosphere with 5% CO2 at 37 °C.
# The in vitro cytotoxicities of PTX-loaded NPs were measured by MTT assays. Cells were seeded in 96-well plates (5000–8000 cells per well) and incubated at 37 °C. After 24 h, the medium was replaced with 180 μL of fresh medium, and the cells were treated with serial dilutions of PTX/PBA NPs, PTX/mPEG-PAL NPs, blank PBA NPs, and blank mPEG-PAL NPs (20 μL) for 48 h at 37 °C. At the end of the incubation, to each well was added […] of MTT solution (5 mg/mL in PBS). After 4 h, the MTT solution was removed from the wells, followed by the addition of supplementary DMSO (100 μL) to dissolve the purple MTT formazan crystals. The absorbance of each well was determined at 490 nm on a microplate reader (Flexstation 3, Molecular Devices LLC, Sunnyvale, CA, USA).
# human DU145 tumor model = conditions: 7.5 mg/kg i.v. on days 0, 3 and 6
# Protocol: as §1
smiles,measurement,setting,value
"CC(=O)O[C@H]1C(=O)[C@@]2(C)[C@H]([C@H](OC(=O)c3ccccc3)[C@]3(O)C[C@H](OC(=O)[C@H](O)[C@@H](NC(=O)c4ccccc4)c4ccccc4)C(C)=C1C3(C)C)[C@]1(OC(C)=O)CO[C@@H]1C[C@@H]2O [Taxol, Paclitaxel]",body weight of mice,[1],remained almost unchanged in the first 9 days and then showed a slow uptrend
same,t1/2α,[2],3.24 min
same,AUC(0-inf),"[2]; mouse, plasma",85.4 ng·h/mL
same,AUC(0-t),"[2]; mouse, plasma",67.5 ng·h/mL
same,Cmax,"[2]; mouse, plasma",94.6 ng/mL
same,half-life,"[2]; mouse, plasma, read-out: t1/2β (converted)",26 min
same,cell apoptosis rate in tumors (TUNEL),DU145 tumor xenografts,dramatic increase
same,IC50,DU145 cells,3.04 nM
same,therapeutic efficacy (tumor photograph and weight at the end of treatment),human DU145 tumor model; end of treatment,better therapeutic efficacy than PBS
same,tumor growth (tumor volume),human DU145 tumor model; first 6 days,completely inhibited
